ChEMBL document CHEMBL3779779, “Discovery of non-peptide small molecular CXCR4 antagonists as anti-HIV agents: Recent advances and future opportunities” (Eur J Med Chem, 2016)
Values belong to the compound of their own block, whether it stands above or below them.

Legend:
[1] = system: Human immunodeficiency virus 1; assay: Antiviral activity against HIV1 3B infected in human MT4 cells assessed as reduction in virus-induced cytopathic effect after 5 days by MTT assay; type: functional, organism-based; settings: Human immunodeficiency virus 1, 3B, MT4, 120 h
[2] = Selectivity index, ratio of CC50 for human MT4 cells to EC50 for HIV1 3B infected in human MT4 cells; type: toxicity, cell-based; settings: read-out: Ratio CC50/EC50
[3] = target: C-X-C chemokine receptor type 4 (Homo sapiens, UniProt P61073); assay: Displacement of [125I]SDF-1 from human CXCR4 expressed in HEK293 cell membrane; type: cell membranes
C-X-C chemokine receptor type 4, sequence (P61073 whole entry): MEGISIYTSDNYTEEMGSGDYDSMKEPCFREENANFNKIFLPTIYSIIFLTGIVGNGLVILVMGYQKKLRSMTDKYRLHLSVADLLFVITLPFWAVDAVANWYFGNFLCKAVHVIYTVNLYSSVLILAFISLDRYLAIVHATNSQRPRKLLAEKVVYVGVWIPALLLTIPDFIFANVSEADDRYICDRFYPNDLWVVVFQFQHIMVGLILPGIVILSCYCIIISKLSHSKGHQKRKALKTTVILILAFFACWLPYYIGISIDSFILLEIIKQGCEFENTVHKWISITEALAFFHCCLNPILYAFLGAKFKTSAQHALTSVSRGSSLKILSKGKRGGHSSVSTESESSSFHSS

[4] = system: Human immunodeficiency virus; assay: Antiviral activity against HIV LAV Clade B infected in human MT4 cells assessed as inhibition of syncytia formation preincubated with cells for 1 hr followed by viral infection […] by inverted optical microscopic analysis; type: functional, organism-based; settings: Human immunodeficiency virus 1, LAV Clade B
[5] = Selectivity index, ratio of CC50 for human MT4 cells to EC50 for HIV LAV Clade B infected in human MT4 cells; type: toxicity, cell-based; settings: read-out: Ratio CC50/EC50
[6] = system: Human immunodeficiency virus 1; assay: Antiviral activity against HIV1 clinical isolate R5/X4 by cell based assay; type: functional, organism-based; settings: Human immunodeficiency virus 1, isolate R5/X4
[7] = system: Human immunodeficiency virus 1; assay: Antiviral activity against HIV1 clinical isolate R5 by cell based assay; type: functional, organism-based; settings: Human immunodeficiency virus 1, isolate R5
[8] = system: Human immunodeficiency virus 1; assay: Antiviral activity against HIV1 clinical isolate X4 by cell based assay; type: functional, organism-based; settings: Human immunodeficiency virus 1, isolate X4
[9] = system: Human immunodeficiency virus 1; assay: Antiviral activity against HIV1 NL4-3 clinical isolate X4 infected in human MT4 cells assessed as reduction in virus-induced cytopathic effect after 5 days by MTT assay; type: functional, organism-based; settings: Human immunodeficiency virus 1, NL4-3 isolate X4, MT4, 120 h
[10] = Tmax in Swiss Webster mouse plasma at 25 mg/kg, sc by LC-MS/MS analysis; type: ADME, organism-based
[11] = system: Human immunodeficiency virus 1; assay: Antiviral activity against HIV1 infected in human MT4 cells assessed as reduction in virus-induced cytopathic effect after 4 to 5 days by MTS assay; type: functional, organism-based; settings: Human immunodeficiency virus 1, MT4
[12] = Elimination half life in dog plasma at 0.41 mg/kg, iv and 0.41 to 2.05 mg/kg, sc by LC-MS/MS analysis; type: ADME, organism-based, Canis lupus familiaris; settings: read-out: beta t1/2 (converted)
[13] = system: Human immunodeficiency virus 2; assay: Antiviral activity against HIV2 ROD infected in human MT4 cells assessed as reduction in virus-induced cytopathic effect after 5 days by MTT assay; settings: Human immunodeficiency virus 2, ISOLATE ROD, MT4, 120 h

SMILES: c1cc(CN2CCCSCCSCCCNCC2)ccc1CN1CCCSCCSCCCNCC1
EC50 [1]: > 6800 nM

SMILES: c1cc(CN2CCCOCCOCCCNCC2)ccc1CN1CCCOCCOCCCNCC1
EC50 [1]: > 363000 nM

SMILES: C1CNCCNCCCN[C@H]([C@@H]2CNCCCNCCNCCCN2)CNC1
EC50 [1]: 100 nM | selectivity ratio [2]: > 1000

SMILES: C1CNCCNCCCN(CCCN2CCCNCCNCCCNCC2)CCNC1
EC50 [1]: 248 nM | selectivity ratio [2]: > 2500

EC50 [3]: 68.4 nM
SMILES: c1ccc2c(NC3CCNCC3)nc(NCc3ccc(CNCCCNC4CCCCC4)cc3)nc2c1

EC50 [4]: 5 nM
SMILES: Cc1cn([C@H]2C[C@H](N=[N+]=[N-])[C@@H](COC(=O)CCCCN3CCCN(Cc4ccc(CN5CCCNCCNCCCNCC5)cc4)CCNCCCNCC3)O2)c(=O)[nH]c1=O
selectivity ratio [5]: 15000

SMILES: c1cc(CN2CCCNCCOCCCNCC2)ccc1CN1CCCNCCOCCCNCC1
EC50 [1]: 4500 nM

EC50 [4]: 10 nM
SMILES: Cc1cn([C@H]2C[C@H](N=[N+]=[N-])[C@@H](COC(=O)CCCCN3CCCNCCNCCCNCC3)O2)c(=O)[nH]c1=O

SMILES: CC(C)CN(CCC[C@H](NC(=O)c1ccc(CNCc2ncc[nH]2)cc1)C(=O)N[C@@H](C)c1cccc2ccccc12)CC(C)C
EC50 [1]: 6.7 nM

EC50 [4]: 5 nM
SMILES: Cc1cn([C@H]2C[C@H](N=[N+]=[N-])[C@@H](COC(=O)CCCCN3CCCN(Cc4ccc(CN5CCCN(C(=O)OC(C)(C)C)CCN(C(=O)OC(C)(C)C)CCCN(C(=O)OC(C)(C)C)CC5)cc4)CCN(C(=O)OC(C)(C)C)CCCN(C(=O)OC(C)(C)C)CC3)O2)c(=O)[nH]c1=O
selectivity ratio [5]: 1000

SMILES: c1cc(CN2CCCNCCCCCCNCC2)ccc1CN1CCCNCCCCCCNCC1
EC50 [1]: 9600 nM

EC50 [6]: 1200 nM | EC50 [7]: 1200 nM | EC50 [8]: 1200 nM
SMILES: Clc1cc(CN2CCCNCCNCCCNCC2)cc(Cl)n1

SMILES: CCCN(CCC)CCCCNC(=O)c1ccc(CN(Cc2ncc[nH]2)Cc2ncc[nH]2)cc1
EC50 [1]: 4 nM

SMILES: Cn1c(CN(CCN2CCCCC2)CC2CCCN(C3CCCC3)C2)nc2ccccc21 (centres undefined)
EC50 [9]: 600 nM

Tmax [10]: 15 min | half-life [12]: 93.6 min
SMILES: c1ccc(CNCc2ccc(CN3CCCNCCNCCCNCC3)cc2)nc1
EC50 [11]: 1 nM

SMILES: c1cc(CN2CCCNCCNCCCNCC2)ccc1CN1CCCNCCNCCCNCC1 [PLERIXAFOR]
EC50 [13]: 2 nM
